Reference: patent publication US11787825B2 (priority 2021, dated 2023)
In brackets after ≈: the same amount, converted by molar mass. Like-named read-outs stand apart in the source and are kept apart here. Marks after values point to notes of the source that are not given here.

Columns and labels:
[1] = Beagle, in vivo, po; for Dog F % (suspension): pH 2
physchem = settings: 25 °C, thermodynamic from solid
[2] = fasted state simulated intestinal fluid (FaSSIF), fassif
[3] = fed state simulated intestinal fluid (FeSSIF), fessif
[4] = 0.1N HCL, 1.0% DMSO, 24-hour incubation at ambient temperature, maximum theoretical compound concentration 100 μM
[5] = 1×PBS buffer (pH 7.4), 1.0% DMSO, 24-hour incubation at ambient temperature, maximum theoretical compound concentration 100 μM

Structure (SMILES)	Dog F % (suspension) [1] [%]	Dog F % (solution) [1]	pH 2 solubility [4] [μM]	pH 7 solubility [5] [μM]	solubility (physchem; fassif) [µg/mL]	other results
CC(C)(C#Cc1ccc(-c2ccc(Cl)c3c(N(C(=O)/C=C/C(=O)N(CCC(=O)O)[C@@H](CC(=O)O)C(=O)O)S(C)(=O)=O)nn(CC(F)(F)F)c23)c([C@H](Cc2cc(F)cc(F)c2)NC(=O)Cn2nc(C(F)(F)F)c3c2C(F)(F)[C@@H]2C[C@H]32)n1)S(C)(=O)=O [Compound 3, N-(2-carboxyethyl)-N—((E)-4-(N-(4-chloro-7-(2-((S)-1-(2-((3bS,4aR)-5,5-difluoro-3-(trifluoromethyl)-3b,4,4a,5-tetrahydro-111-cyclopropa[3,4]cyclopenta[1,2-c]pyrazol-1-yl)acetamido)-2-(3,5-difluorophenyl)ethyl)-6-(3-methyl-3-(methylsulfonyl)but-1-yn-1-yl)pyridin-3-yl)-1-(2,2,2-trifluoroethyl)-1H-indazol-3-yl)methylsulfonamido)-4-oxobut-2-enoyl)-L-aspartic acid]	10					
CC(C)(C#Cc1ccc(-c2ccc(Cl)c3c(N(C(=O)CCC(=O)OCOP(=O)(O)O)S(C)(=O)=O)nn(CC(F)(F)F)c23)c([C@H](Cc2cc(F)cc(F)c2)NC(=O)Cn2nc(C(F)(F)F)c3c2C(F)(F)[C@@H]2C[C@H]32)n1)S(C)(=O)=O [Compound 28, (phosphonooxy)methyl 4-(N-(4-chloro-7-(2-((S)-1-(2-((3bS,4aR)-5,5-difluoro-3-(trifluoromethyl)-3b,4,4a,5-tetrahydro-1H-cyclopropa[3,4]cyclopenta[1,2-c]pyrazol-1-yl)acetamido)-2-(3,5-difluorophenyl)ethyl)-6-(3-methyl-3-(methylsulfonyl)but-1-yn-1-yl)pyridin-3-yl)-1-(2,2,2-trifluoroethyl)-1H-indazol-3-yl)methylsulfonamido)-4-oxobutanoate]		51^b %	1	86		solubility (physchem; [2]): 555 µg/mL (≈ 471 µM); solubility (physchem; [3]): 319 µg/mL (≈ 271 µM)
CC(C)(C#Cc1ccc(-c2ccc(Cl)c3c(N(C(=O)CCCN(CC(=O)O)C(=O)OCOP(=O)(O)O)S(C)(=O)=O)nn(CC(F)(F)F)c23)c([C@H](Cc2cc(F)cc(F)c2)NC(=O)Cn2nc(C(F)(F)F)c3c2C(F)(F)[C@@H]2C[C@H]32)n1)S(C)(=O)=O [Compound 30, N-(4-(N-(4-chloro-7-(2-((S)-1-(2-((3bS,4aR)-5,5-difluoro-3-(trifluoromethyl)-3b,4,4a,5-tetrahydro-1H-cyclopropa[3,4]cyclopenta[1,2-c]pyrazol-1-yl)acetamido)-2-(3,5-difluorophenyl)ethyl)-6-(3-methyl-3-(methylsulfonyl)but-1-yn-1-yl)pyridin-3-yl)-1-(2,2,2-trifluoroethyl)-1H-indazol-3-yl)methylsulfonamido)-4-oxobutyl)-N-(((phosphonooxy)methoxy)carbonyl)glycine]	18	18^c %	1	100		solubility (physchem; [2]): > 1100 µg/mL; solubility (physchem; [3]): 5830 µg/mL (≈ 4600 µM)
CC(C)(C#Cc1ccc(-c2ccc(Cl)c3c(N(C(=O)CCCN(C(=O)OCOP(=O)(O)O)[C@H](C(=O)O)c4ccccc4)S(C)(=O)=O)nn(CC(F)(F)F)c23)c([C@H](Cc2cc(F)cc(F)c2)NC(=O)Cn2nc(C(F)(F)F)c3c2C(F)(F)[C@@H]2C[C@H]32)n1)S(C)(=O)=O [Compound 40]	5		1	100		
CC(C)(CC(=O)N(c1nn(CC(F)(F)F)c2c(-c3ccc(C#CC(C)(C)S(C)(=O)=O)nc3[C@H](Cc3cc(F)cc(F)c3)NC(=O)Cn3nc(C(F)(F)F)c4c3C(F)(F)[C@@H]3C[C@H]43)ccc(Cl)c12)S(C)(=O)=O)CN(CC(=O)O)C(=O)OCOP(=O)(O)O [Compound 42, N-(4-(N-(4-chloro-7-(2-((S)-1-(2-((3bS,4aR)-5,5-difluoro (trifluoromethyl)-3b,4,4a,5-tetrahydro-1H-cyclopropa[3,4]cyclopenta[1,2-c]pyrazolyl)acetamido)-2-(3,5-difluorophenyl)ethyl)-6-(3-methyl-3-(methylsulfonyl)but-1-ynyl)pyridin-3-yl)-1-(2,2,2-trifluoroethyl)-1H-indazol-3-yl)methylsulfonamido)-2,2-dimethyl-4-oxobutyl)-N-(((phosphonooxy)methoxy)carbonyl)glycine]	9		1	100		
Cc1cc(CC(=O)O)cc(OP(=O)(O)O)c1C(C)(C)CC(=O)N(c1nn(CC(F)(F)F)c2c(-c3ccc(C#CC(C)(C)S(C)(=O)=O)nc3[C@H](Cc3cc(F)cc(F)c3)NC(=O)Cn3nc(C(F)(F)F)c4c3C(F)(F)[C@@H]3C[C@H]43)ccc(Cl)c12)S(C)(=O)=O [Compound 47, 2-(4-(4-(N-(4-chloro-7-(2-((S)-1-(2-((3bS,4aR)-5,5-difluoro (trifluoromethyl)-3b,4,4a,5-tetrahydro-1H-cyclopropa[3,4]cyclopenta[1,2-c]pyrazolyl)acetamido)-2-(3,5-difluorophenyl)ethyl)-6-(3-methyl-3-(methylsulfonyl)but-1-ynyl)pyridin-3-yl)-1-(2,2,2-trifluoroethyl)-1H-indazol-3-yl)methylsulfonamido)-2-methyloxobutan-2-yl)-3-methyl-5-(phosphonooxy)phenyl)acetic acid]	7				1420 (≈ 1100 µM)	solubility (physchem; fessif): 226 µg/mL (≈ 174 µM)
Cc1cc(C)c(C(C)(C)CC(=O)N(c2nn(CC(F)(F)F)c3c(-c4ccc(C#CC(C)(C)S(C)(=O)=O)nc4[C@H](Cc4cc(F)cc(F)c4)NC(=O)Cn4nc(C(F)(F)F)c5c4C(F)(F)[C@@H]4C[C@H]54)ccc(Cl)c23)S(C)(=O)=O)c(OP(=O)(O)O)c1 [Compound 48, 2-(4-(N-(4-chloro-7-(2-((S)-1-(2-03bS,4aR)-5,5-difluoro (trifluoromethyl)-3b,4,4a,5-tetrahydro-1H-cyclopropa[3,4]cyclopenta[1,2-c]pyrazolyl)acetamido)-2-(3,5-difluorophenyl)ethyl)-6-(3-methyl-3-(methylsulfonyl)but-1-ynyl)pyridin-3-yl)-1-(2,2,2-trifluoroethyl)-1H-indazol-3-yl)methylsulfonamido)-2-methyl oxobutan-2-yl)-3,5-dimethylphenyl dihydrogen phosphate]	16	60^b %			777	solubility (physchem; fessif): 948 µg/mL
Cc1cc(CP(=O)(O)O)c(C(C)(C)CC(=O)N(c2nn(CC(F)(F)F)c3c(-c4ccc(C#CC(C)(C)S(C)(=O)=O)nc4[C@H](Cc4cc(F)cc(F)c4)NC(=O)Cn4nc(C(F)(F)F)c5c4C(F)(F)[C@@H]4C[C@H]54)ccc(Cl)c23)S(C)(=O)=O)c(OP(=O)(O)O)c1 [Compound 55, (2-(4-(N-(4-chloro-7-(2-((S)-1-(2-((3bS,4aR)-5,5-difluoro-3-(trifluoromethyl)-3b,4,4a,5-tetrahydro-1H-cyclopropa[3,4]cyclopenta[1,2-c]pyrazol-1-yl)acetamido)-2-(3,5-difluorophenyl)ethyl)-6-(3-methyl-3-(methylsulfonyl)but-1-yn-1-yl)pyridin-3-yl)-1-(2,2,2-trifluoroethyl)-1H-indazol-3-yl)methylsulfonamido)-2-methyl-4-oxobutan-2-yl)-5-methyl-3-(phosphonooxy)benzyl)phosphonic acid]		33 ^c %			> 10000	
Cc1cc(CC(=O)N[C@@H](CC(=O)O)C(=O)O)c(C(C)(C)CC(=O)N(c2nn(CC(F)(F)F)c3c(-c4ccc(C#CC(C)(C)S(C)(=O)=O)nc4[C@H](Cc4cc(F)cc(F)c4)NC(=O)Cn4nc(C(F)(F)F)c5c4C(F)(F)[C@@H]4C[C@H]54)ccc(Cl)c23)S(C)(=O)=O)c(OP(=O)(O)O)c1 [Compound 59, (2-(2-(4-(N-(4-chloro-7-(2-((S)-1-(2-((3bS,4aR)-5,5-difluoro-3-(trifluoromethyl)-3b,4,4a,5-tetrahydro-1H-cyclopropa[3,4]cyclopenta[1,2-c]pyrazolyl)acetamido)-2-(3,5-difluorophenyl)ethyl)-6-(3-methyl-3-(methylsulfonyl)but-1-ynyl)pyridin-3-yl)-1-(2,2,2-trifluoroethyl)-1H-indazol-3-yl)methylsulfonamido)-2-methyloxobutan-2-yl)-5-methyl-3-(phosphonooxy)phenyl)acetyl)-L-aspartic acid]		27 ^c %				
Cc1cc(C(=O)N[C@@H](CC(=O)O)C(=O)O)cc(OP(=O)(O)O)c1C(C)(C)CC(=O)N(c1nn(CC(F)(F)F)c2c(-c3ccc(C#CC(C)(C)S(C)(=O)=O)nc3[C@H](Cc3cc(F)cc(F)c3)NC(=O)Cn3nc(C(F)(F)F)c4c3C(F)(F)[C@@H]3C[C@H]43)ccc(Cl)c12)S(C)(=O)=O [Compound 65, (4-(4-(N-(4-chloro-7-(2-((S)-1-(2-((3bS,4aR)-5,5-difluoro-3-(trifluoromethyl)-3b,4,4a,5-tetrahydro-1H-cyclopropa[3,4]cyclopenta[1,2-c]pyrazol-1-yl)acetamido)-2-(3,5-difluorophenyl)ethyl)-6-(3-methyl-3-(methylsulfonyl)but-1-yn-1-yl)pyridin-3-yl)-1-(2,2,2-trifluoroethyl)-1H-indazol-3-yl)methylsulfonamido)-2-methyl-4-oxobutan-2-yl)-3-methyl-5-(phosphonooxy)benzoyl)-L-aspartic acid]					1100 (≈ 787 µM)	pH 2 solubility (pH 2): 7/68 μM; pH 7 solubility (pH 7.4): 7/68 μM
CC(C)(C#Cc1ccc(-c2ccc(Cl)c3c(NS(C)(=O)=O)nn(CC(F)(F)F)c23)c([C@H](Cc2cc(F)cc(F)c2)NC(=O)Cn2nc(C(F)(F)F)c3c2C(F)(F)[C@@H]2C[C@H]32)n1)S(C)(=O)=O [Intermediate 5, N—((S)-1-(3-(4-chloro-3-(methylsulfonamido)-1-(2,2,2-trifluoroethyl)-1H-indazol-7-yl)-6-(3-methyl-3-(methylsulfonyl)but-1-yn-1-yl)pyridin-2-yl)-2-(3,5-difluorophenyl)ethyl)-2-((3bS,4aR)-5,5-difluoro-3-(trifluoromethyl)-3b,4,4a,5-tetrahydro-1H-cyclopropa[3,4]cyclopenta[1,2-c]pyrazol-1-yl)acetamide, reference compound]			0.11	0.32		solubility (physchem; [2]): 4 µg/mL (≈ 4.13 µM); solubility (physchem; [3]): 4.2 µg/mL (≈ 4.34 µM)
